Here are results for 1 compound from publication PMC10542788, “Discovery of a cystathionine γ-lyase (CSE) selective inhibitor targeting active-site pyridoxal 5′-phosphate (PLP) via Schiff base formation” (Scientific Reports, 2023).

Molecules are shown by their SMILES. “Also recorded” adds a separate entry of the source.

Assay [1] has as its target T1, rCSE (Rattus norvegicus, UniProt P18757). Put plainly: Live-cell fluorescence imaging of sulfane sulfur with SSP4 in rCSE-expressing COS-7 cells. Type of assay: cell-based. To be noted: COS-7 cells expressing rCSE, 1000 µM. Here is the method: Finally, we evaluated the inhibitory activity of 1 towards rCSE in cells. […] So, we prepared COS-7 cells expressing rCSE, treated them with 1 at various concentrations (0, 100, 300 and 1000 µM), and performed fluorescence imaging of sulfane sulfur with SSP4. […] Thus, this inhibitor is available for live-cell experiments.
COS-7 cells were maintained in Dulbecco’s modified Eagle’s medium (DMEM) containing 10% fetal calf serum (FBS) and 1% penicillin streptomycin in a humidified atmosphere at 37 °C. The cells were seeded in 6 cm dishes at a density of 5 × 10^5 cells per dish. Transient transfection was performed with Lipofectamine 3000 (Thermo Fisher Scientific). Briefly, 2.5 µg plasmid, 5 µL P3000 reagent, and 7.5 µL Lipofectamine 3000 reagent were mixed in Opti-MEM, and the mixture was added to the cells. After incubation for 24 h, transfected COS-7 cells were re-seeded in eight-well chamber slides (µ-Slide 8 well high, ibidi GmbH) at a density of 4 × 10^4 cells per well. […] Excess probe was removed and the cells were washed with HBSS, then fluorescence images were captured using a Nikon A1R + confocal laser scanning microscope with an ECLIPSE Ti-E inverted microscope and a 20 × objective lens. […] Fluorescence intensity of images was calculated by using NIS-Elements software (Nikon).

Assay [2] has as its target T2, rCBS (Rattus norvegicus, UniProt P32232).
T2 construct: GST (N); HA (C); made in house; host or cells: E. coli BL21
T2 sequence (P32232 1-561): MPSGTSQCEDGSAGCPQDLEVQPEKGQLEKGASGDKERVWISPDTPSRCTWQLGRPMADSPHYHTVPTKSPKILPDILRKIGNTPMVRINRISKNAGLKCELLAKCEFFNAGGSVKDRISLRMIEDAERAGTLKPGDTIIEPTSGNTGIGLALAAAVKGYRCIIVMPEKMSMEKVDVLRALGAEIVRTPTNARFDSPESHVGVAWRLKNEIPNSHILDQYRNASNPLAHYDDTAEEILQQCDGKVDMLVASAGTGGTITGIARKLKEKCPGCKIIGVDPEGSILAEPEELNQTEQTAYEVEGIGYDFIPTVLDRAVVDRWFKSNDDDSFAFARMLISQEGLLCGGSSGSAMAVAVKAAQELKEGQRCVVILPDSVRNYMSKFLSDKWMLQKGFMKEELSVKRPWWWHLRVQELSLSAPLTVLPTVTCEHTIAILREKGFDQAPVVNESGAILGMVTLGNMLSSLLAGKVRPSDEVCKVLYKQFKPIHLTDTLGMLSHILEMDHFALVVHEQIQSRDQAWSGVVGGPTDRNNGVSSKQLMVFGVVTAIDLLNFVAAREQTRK
The assay can be described thus: rCBS inhibition, HSip-1 fluorescence. Type of assay: biochemical. To be noted: 30 µM. Here is the method: (§1) The selectivity of 1, 2 and PAG for rCSE over other RSS-producing enzymes, CBS and 3MST, was examined (Fig. 4a). CBS is a PLP-dependent enzyme, like CSE, and produces H2S from cysteine and homocysteine as substrates. 3MST is also an H2S-producing enzyme, but is not PLP-dependent and uses 3-mercaptopyruvate as a substrate. The amount of H2S produced by CBS or 3MST was evaluated in the presence or absence of the inhibitor by measuring the fluorescence intensity of HSip-1. […] We also examined the inhibitory activity towards two other PLP-dependent enzymes, MGL and ALT. MGL metabolizes L-methionine to α-ketobutyric acid, methanethiol and ammonia, and is inhibited by PAG[14]. MGL also produces H2S from homocysteine as a substrate, and this activity of MGL can be measured by fluorescence detection with HSip-1. […] The enzymatic activity of ALT can be assessed by means of a coupled assay using the reduction of pyruvate to L-lactate with lactate dehydrogenase and NADH and measuring the change in absorption of NADH.
10 µL of 2.5 mM cysteine and 2.5 mM homocysteine in 30 mM HEPES (pH 7.4) was added to 10 µL of a solution containing 20 µg/mL rCBS, 50 µM PLP, 100 µM SAM, 1 µM HSip-1, 0.005% tween 20, 0.5% DMSO and various concentrations of the inhibitors. The mixture was incubated at 37 °C for 2 h and the fluorescence intensity of HSip-1 was measured with a microplate reader.

Assay [3] relates to ALT. The assay can be described thus: ALT inhibition, coupled absorbance assay (NADH, 340 nm). Type of assay: biochemical. The following applies: 30 µM. As to the method: as §1
An alanine aminotransferase activity assay kit (BioVision, Inc.) was used to measure the activity of ALT. A mixture of L-alanine, NADH, LDH (lactate dehydrogenase) and ALT was incubated at 37 °C for 15 min, then α-ketoglutarate was added to the mixture and the absorbance at 340 nm was measured with a microplate reader.

The target in assay [4] is T1, rCSE. The assay can be described thus: SPR measurement of binding between rCSE and 1. Further details: made in house; host or cells: E. coli. Here is the method:
Moreover, we performed surface plasmon resonance (SPR) assay to investigate the binding kinetics between rCSE and 1. rCSE was immobilized on a sensor chip of an SPR sensor, and various concentrations (6.25, 12.5, 25 and 50 µM) of 1 were flowed over it. The sensor chip was flushed with buffer solution not containing 1 before each concentration change of 1. […] In SPR binding studies between small molecule ligands and proteins, the washing process often markedly decreases the SPR signal.
The interaction between rCSE and oxamic hydrazide was analyzed using a Biacore T200 SPR instrument (Cytiva). A CM7 Biacore sensor chip (Cytiva) was used to immobilize rCSE at approximately 35,000 RU after activation with N-hydroxysuccinimide/N-ethyl-N′-(3-dimethylaminopropyl) carbodiimide hydrochloride. Acetate buffer (pH 5.5) was used to dilute rCSE. The activated surface of the sensor was blocked with 1 M ethanolamine. The interaction between rCSE and oxamic hydrazide was measured by injecting increasing concentrations of oxamic hydrazide into the sensor chip. The interaction was measured in 20 mM HEPES (pH 7.4) containing 150 mM NaCl, 0.5 mM TCEP, 100 µM PLP, 0.005% (v/v) Tween-20 and 1% (v/v) DMSO as a cosolvent.
On the technique in general: SPR reads the build-up and loss of mass on a sensor chip optically.

T1 sequence (P18757 whole entry): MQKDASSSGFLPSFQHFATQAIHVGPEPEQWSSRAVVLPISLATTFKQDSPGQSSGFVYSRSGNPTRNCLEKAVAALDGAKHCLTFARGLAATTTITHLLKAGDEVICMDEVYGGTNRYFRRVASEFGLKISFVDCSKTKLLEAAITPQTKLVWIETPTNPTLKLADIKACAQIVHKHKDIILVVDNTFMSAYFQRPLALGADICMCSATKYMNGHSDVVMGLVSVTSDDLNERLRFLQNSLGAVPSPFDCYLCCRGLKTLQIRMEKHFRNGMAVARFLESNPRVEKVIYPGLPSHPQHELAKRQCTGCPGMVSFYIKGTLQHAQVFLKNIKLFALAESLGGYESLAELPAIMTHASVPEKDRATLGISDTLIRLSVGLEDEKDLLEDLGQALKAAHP

In the case of `NNC(=O)C(N)=O` [Compound 1, oxamic hydrazide], the “SSP4 fluorescence intensity (sulfane sulfur) in cells” value in assay [1] is “almost completely suppressed”. For the same compound, in assay [2], the “selectivity for CSE over CBS” value is “high selectivity for CSE over CBS”. Besides, in assay [3], the “inhibitory activity towards ALT / selectivity for CSE over ALT” value was “high selectivity for CSE over MGL and ALT”. For the same compound, the “binding to rCSE (SPR)” value in assay [4] (6.25, 12.5, 25 and 50 µM) is on record as “increased concentration-dependently”. The “dissociation from rCSE during washing (SPR)” value in assay [4] (washing with buffer not containing 1) is “little dissociation occurs; also recorded: no dissociation”.
